Results: publication PMC5933261, “A phase 1 dose-escalation study of veliparib with bimonthly FOLFIRI in patients with advanced solid tumours” (British Journal of Cancer, 2018)

What was measured:
[1] = Pharmacokinetics of FOLFIRI components with and without veliparib (relative bioavailability); settings: cycle 1 day 15 vs cycle 1 day 1
Method: Treatment-emergent adverse events (TEAEs) were assessed from the time of study drug administration until 30 days following discontinuation of study drug. TEAEs were assessed according to the National Cancer Institute Common Terminology Criteria for Adverse Events version 4.0. In dose-escalation cohorts, blood samples were collected on day 15 of cycle 1 for veliparib PK, and on days 1 and 15 of cycle 1 for PK assessment of the FOLFIRI components irinotecan, SN-38, folinic acid (leucovorin), and 5-FU. Exploratory efficacy end points included objective response rate (ORR), time to disease progression (TTP), duration of overall response (DOR), and ECOG performance status. Objective response rate included confirmed complete response (CR) and partial response (PR). Objective response rate evaluation was based on Response Evaluation Criteria in Solid Tumours version 1.1. Objective response rate was calculated for all patients with one or more measurable lesions at baseline. Time to disease progression was defined as the number of days from the date the patient started study drug to the date of the patient’s disease progression. Duration of overall response was defined as the number of days from the day criteria were met for CR or PR (whichever was recorded first) to the date that PD was objectively documented. If a patient was still responding, the patient’s data were censored at the date of the last study visit at which a tumour assessment was performed. Analyses of change and/or percentage change from baseline for tumour size were performed for each scheduled post-baseline visit and for the final visit. ECOG performance status was assessed at all visits, with descriptive statistics summarised for each assessment. In addition, a mean change from baseline to each assessment time was summarised.
The sample size was based on clinical justification. No specific statistical hypothesis tests were planned, with descriptive statistics used for the analysis of safety, PK, and tumour response data. The study population for all safety and preliminary efficacy analyses included patients who received one or more doses of study medication. Data from parts 1–3 of the dose-escalation cohort were combined for assessment of the effect of veliparib on the PK of irinotecan, SN-38, and folinic acid. Linear mixed effects models were performed on natural logarithmically transformed maximum plasma concentration (Cmax) and area under the plasma or serum concentration-time curve (AUC) to compare exposure of irinotecan, SN-38, and folinic acid with and without the administration of veliparib. Point estimates and the corresponding 90% confidence intervals (CIs) of the ratio of central values with and without veliparib administration were calculated.

advanced solid tumours = assay: Exploratory efficacy: ORR (RECIST version 1.1), TTP, DOR; assay type: in vivo, human
Excerpt: The sample size was based on clinical justification.

With `C[C@]1(c2nc3c(C(N)=O)cccc3[nH]2)CCCN1` [veliparib, Veliparib] the “Effect of veliparib on the pharmacokinetics of FOLFIRI components” value [1] was “no significant effect”, the “Effect of veliparib on the pharmacokinetics of FOLFIRI components” value ([1]; listed as Veliparib) was “no effect” and the “Median time to disease progression (TTP)” value (advanced solid tumours; expanded safety cohort, colorectal (N=6)) was 195 days. The “6-month TTP rate” value (advanced solid tumours; expanded safety cohort, colorectal cancer (n = 6), veliparib RP2D plus FOLFIRI) was 60.0%, the “Median time to disease progression (TTP)” value (advanced solid tumours; expanded safety cohort, gastric (N=14)) was 223 days and the “6-month TTP rate” value (advanced solid tumours; expanded safety cohort, gastric cancer (n = 14), veliparib RP2D plus FOLFIRI) was 53.8%. The “Complete response (CR)” value (advanced solid tumours; veliparib plus FOLFIRI) was “not achieved by any patients”, the “Patients with a partial response” value (advanced solid tumours; veliparib plus FOLFIRI) was “Fifteen” and the “Objective response rate (ORR)” value (advanced solid tumours; veliparib plus FOLFIRI, 85 patients with measurable lesions at baseline) was 17.6%. The “ORR (CR + PR)” value (advanced solid tumours; veliparib plus FOLFIRI, Breast n = 8) was 2 (25.0) (3.2–65.1) n (%) (95% CI), the “ORR (CR + PR)” value (advanced solid tumours; veliparib plus FOLFIRI, Colorectal n = 9) was 2 (22.2) (2.8–60.0) n (%) (95% CI) and the “ORR (CR + PR)” value (advanced solid tumours; veliparib plus FOLFIRI, Gastric n = 20) was 3 (15.0) (3.2–37.9) n (%) (95% CI). For the same compound, the “ORR (CR + PR)” value (advanced solid tumours; veliparib plus FOLFIRI, Other n = 27) was 3 (11.1) (2.4–29.2) n (%) (95% CI), the “ORR (CR + PR)” value (advanced solid tumours; veliparib plus FOLFIRI, Ovarian n = 7) was 3 (42.9) (9.9–81.6) n (%) (95% CI) and the “ORR (CR + PR)” value (advanced solid tumours; veliparib plus FOLFIRI, Overall n = 85, measurable lesions at baseline) was 15 (17.6) (10.2–27.4) n (%) (95% CI). The “ORR (CR + PR)” value (advanced solid tumours; veliparib plus FOLFIRI, Pancreatic n = 14) was 2 (14.3) (1.8–42.8) n (%) (95% CI), the “Median time to disease progression (TTP)” value (advanced solid tumours; veliparib plus FOLFIRI, all dosed patients, colorectal (N=10)) was 195 days and the “Median time to disease progression (TTP)” value (advanced solid tumours; veliparib plus FOLFIRI, all dosed patients, gastric (N=20)) was 157 days. The “Median time to disease progression (TTP)” value (advanced solid tumours; veliparib plus FOLFIRI, all dosed patients, ovarian (N=9)) was 361 days, the “Objective response rate (ORR)” value (advanced solid tumours; veliparib plus FOLFIRI, breast cancer) was 25.0% and the “6-month TTP rate” value (advanced solid tumours; veliparib plus FOLFIRI, breast cancer (n = 9)) was 22.2%. For the same compound, the “Objective response rate (ORR)” value (advanced solid tumours; veliparib plus FOLFIRI, colorectal cancer) was 22.2%, the “6-month TTP rate” value (advanced solid tumours; veliparib plus FOLFIRI, colorectal cancer (n = 10)) was 50.8% and the “6-month TTP rate” value (advanced solid tumours; veliparib plus FOLFIRI, gastric cancer (n = 20)) was 45.9%. For the same compound, the “6-month TTP rate” value (advanced solid tumours; veliparib plus FOLFIRI, other cancers (n = 30)) was 21.2%, the “Objective response rate (ORR)” value (advanced solid tumours; veliparib plus FOLFIRI, ovarian cancer (n = 7)) was 42.9% and the “6-month TTP rate (probability of remaining progression-free for 6 months)” value (advanced solid tumours; veliparib plus FOLFIRI, ovarian cancer (n = 9)) was 65%. The “Objective response rate (ORR)” value (advanced solid tumours; veliparib plus FOLFIRI, pancreatic cancer) was 14.3%, the “6-month TTP rate” value (advanced solid tumours; veliparib plus FOLFIRI, pancreatic cancer (n = 14)) was 26.8% and the “Median duration of overall response (DOR)” value (advanced solid tumours; veliparib plus FOLFIRI, patients who received irinotecan 150 mg/m^2) was 560 days. The Response rates (advanced solid tumours; veliparib plus FOLFIRI, previously treated patient population) was “over 15%”.
